Results on eleven molecules are retold here after ChEMBL document CHEMBL4033683, “Dual functional small molecule fluorescent probes for image-guided estrogen receptor-specific targeting coupled potent antiproliferative potency for breast cancer therapy” (Bioorg Med Chem, 2017).

Data set [1] relates to MCF7. Briefly: cells. The conditions noted are these: Homo sapiens, MCF7, 72 h.
Data set [2] concerns the target T1, Estrogen receptor (Homo sapiens) (UniProt P03372).
T1 sequence (whole entry): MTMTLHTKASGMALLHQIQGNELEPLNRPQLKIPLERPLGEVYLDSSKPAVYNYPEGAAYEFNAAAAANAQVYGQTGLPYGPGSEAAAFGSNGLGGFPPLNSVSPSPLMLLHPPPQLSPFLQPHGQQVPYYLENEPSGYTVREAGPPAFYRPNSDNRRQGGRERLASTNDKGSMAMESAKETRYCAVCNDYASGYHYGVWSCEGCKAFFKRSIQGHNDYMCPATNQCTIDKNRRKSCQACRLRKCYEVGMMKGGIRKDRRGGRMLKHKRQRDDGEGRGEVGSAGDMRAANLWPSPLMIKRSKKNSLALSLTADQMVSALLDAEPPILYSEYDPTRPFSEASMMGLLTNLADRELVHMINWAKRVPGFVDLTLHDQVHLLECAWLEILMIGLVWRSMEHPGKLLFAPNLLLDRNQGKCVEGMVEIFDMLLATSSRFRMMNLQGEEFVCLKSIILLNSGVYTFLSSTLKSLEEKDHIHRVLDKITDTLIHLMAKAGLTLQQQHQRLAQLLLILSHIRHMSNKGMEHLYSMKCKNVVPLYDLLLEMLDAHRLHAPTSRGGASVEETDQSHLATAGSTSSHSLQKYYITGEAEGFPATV
In words: Agonist activity at ERalpha (unknown origin) expressed in HEK293T cells after 24 hrs by luciferase reporter gene assay. In kind it is cell-based. On the technique in general: In a reporter assay the amount or activity of a reporter protein is the signal.

In data set [3] the test system is MDA-MB-231. Briefly: Antiproliferative activity against human MDA-MB-231 cells after 72 hrs by MTT assay. In kind it is functional, cell-based. The conditions noted are these: MDA-MB-231, 72 h. A general note: Formazan colour is commonly taken as a measure of viable cells.
For data set [4], the system named is MDA-MB-453. In words: Antiproliferative activity against human MDA-MB-453 cells after 72 hrs by MTT assay. Conditions: MDA-MB-453, 72 h. In kind it is functional, cell-based.
In data set [5] the target is T2, Estrogen receptor beta (Homo sapiens, UniProt Q92731). Briefly: Agonist activity at ERbeta (unknown origin) expressed in HEK293T cells after 24 hrs by luciferase reporter gene assay relative to estradiol. In kind it is cell-based.
T2 sequence (Q92731 whole entry): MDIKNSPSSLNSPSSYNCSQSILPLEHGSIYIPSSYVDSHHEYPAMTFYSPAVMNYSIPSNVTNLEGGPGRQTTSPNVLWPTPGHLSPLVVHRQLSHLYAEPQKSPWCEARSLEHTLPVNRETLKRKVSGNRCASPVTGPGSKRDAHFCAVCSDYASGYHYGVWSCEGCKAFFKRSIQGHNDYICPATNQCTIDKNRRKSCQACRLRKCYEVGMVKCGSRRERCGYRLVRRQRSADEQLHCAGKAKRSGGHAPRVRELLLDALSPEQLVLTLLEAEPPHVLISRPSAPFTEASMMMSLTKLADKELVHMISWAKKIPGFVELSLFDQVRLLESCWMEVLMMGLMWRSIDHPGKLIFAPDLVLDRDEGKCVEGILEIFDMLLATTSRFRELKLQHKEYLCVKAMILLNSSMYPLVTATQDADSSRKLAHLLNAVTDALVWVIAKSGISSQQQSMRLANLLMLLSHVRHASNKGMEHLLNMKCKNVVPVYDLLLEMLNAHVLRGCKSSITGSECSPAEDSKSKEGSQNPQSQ
Data set [6] has as its target T2, Estrogen receptor beta. Briefly: Agonist activity at ERbeta (unknown origin) expressed in HEK293T cells after 24 hrs by luciferase reporter gene assay. In kind it is cell-based.
Data set [7] concerns the target T1, Estrogen receptor (Homo sapiens). In words: Antagonist activity at ERalpha (unknown origin) expressed in HEK293T cells assessed as inhibition of estradiol-induced response after 24 hrs by luciferase reporter gene assay relative to estradiol. In kind it is cell-based.
The target of data set [8] is T3, Estrogen receptor (Homo sapiens, UniProt P03372).
T3 sequence (P03372 whole entry): T1 sequence (whole entry)
In words: Antagonist activity at ERalpha (unknown origin) expressed in HEK293T cells assessed as inhibition of estradiol-induced response after 24 hrs by luciferase reporter gene assay. In kind it is cell-based.

The nature of data set [9]: Drug uptake in cytosol of human MCF7 cells at 1 uM up to 4 mins by real time fluorescence imaging analysis. In kind it is ADME.
The target of data set [10] is T1, Estrogen receptor (Homo sapiens). Briefly: Binding affinity to ERalpha (unknown origin) at 1 uM by fluorescence assay.
The nature of data set [11]: Drug uptake in nucleus of human MCF7 cells at 1 uM up to 4 mins by real time fluorescence imaging analysis. In kind it is ADME.
A short description of data set [12]: Drug uptake in human MDA-MB-231 cells at 10 uM after 2 hrs by confocal laser scanning microscopic method. Conditions: mda-mb-231, 2 h. In kind it is ADME, cell-based.
The species entered for data set [13] is Homo sapiens. Briefly: Binding affinity to ER in human MCF7 cells assessed as increase in fluorescence in nucleus at 1 uM up to 4 mins by real time imaging analysis. In kind it is cell-based.
The species named for data set [14] is Homo sapiens. Briefly: Binding affinity to ER in human MCF7 cells assessed as increase in fluorescence in cytosol at 10 uM after 2 hrs by confocal laser scanning microscopic method. In kind it is cell-based.
For data set [15], the species on record is Homo sapiens. Briefly: Binding affinity to ER in human MCF7 cells at 10 uM preincubated for 2 hrs followed by estradiol addition measured after 10 mins by confocal laser scanning microscopic method. In kind it is cell-based.
The species entered for data set [16] is Homo sapiens. Briefly: Binding affinity to ER in human MCF7 cells assessed as increase in fluorescence in cytosol at 1 uM up to 4 mins by real time imaging analysis. In kind it is cell-based.
The target of data set [17] is T2, Estrogen receptor beta. Briefly: Binding affinity to ERbeta (unknown origin) at 1 uM in presence of estradiol by fluorescence assay.
The target in data set [18] is T2, Estrogen receptor beta. In words: Binding affinity to ERbeta (unknown origin) at 1 uM by fluorescence assay.
Data set [19] concerns the target T1, Estrogen receptor (Homo sapiens). In words: Binding affinity to ERalpha (unknown origin) at 1 uM in presence of estradiol by fluorescence assay.
Data set [20] is filed under the species Homo sapiens. In words: Binding affinity to ER in human MCF7 cells at 1 uM up to 4 mins by real time imaging analysis. In kind it is cell-based.
The species named for data set [21] is Homo sapiens. Briefly: Binding affinity to ER in human MCF7 cells assessed as increase in fluorescence in nucleus at 10 uM after 2 hrs by confocal laser scanning microscopic method. In kind it is cell-based.

The source made the active and inactive calls. No cut-off for these calls is given here.

One may read the IC50 as the concentration that inhibits the measured activity by half. As for `CCc1c(-c2ccc(O)c(F)c2)c(=O)oc2cc(O)ccc12`, the IC50 is 50 µM in data set [1], 48.6 µM in data set [3] and 39.8 µM in data set [4]. The result in data set [2] was inactive.

As for `CCC(=C(c1ccc(O)cc1)c1ccc(OCCN(C)C)cc1)c1ccccc1`, the half-maximal inhibitory concentration (IC50) in [3] came to 20.1 µM; in [4], 10.4 µM.

The term EC50 denotes the concentration needed to bring the measured effect to its halfway point. As to `O=c1oc2cc(O)ccc2cc1-c1ccc(O)cc1`, the Efficacy stood at 138% in data set [5] and 101% in data set [7]. In data set [6], this molecule came in with an EC50 of 0.542 µM. The IC50 in [1], in data set [3] and in [4] was more than 100 µM each time. Also, the result in data set [2] was inactive.

Turning to `O=c1oc2cc(O)ccc2c(-c2ccc(O)cc2)c1-c1ccc(O)cc1`, the figures for the Efficacy in [5] and in data set [7] were 33.4% and 15.2%, respectively. In addition, the 50% inhibitory concentration (IC50) stood at 0.222 µM in [8], 49 µM in [1], 59.8 µM in [3] and 29.1 µM in data set [4]. The molecule further yielded an EC50 in [6] of 0.012 µM.

With `Cc1cc(O)ccc1-c1c(C)c2ccc(O)cc2oc1=O`, the Efficacy in [5] was determined as 72.1%; in data set [7], 65.3%. Further, the 50% inhibitory concentration (IC50) was 0.112 µM in data set [8], more than 100 µM in data set [1], more than 100 µM in data set [3] and 55.3 µM in [4]. The molecule also returned an EC50 in data set [6] of 0.011 µM. Moreover, the outcome in data set [2] was inactive.

Turning to `O=c1oc2cc(O)ccc2cc1-c1ccc(O)c(F)c1`, the Efficacy in data set [5] worked out at 66.7%; in [7] it was 124%. A half-maximal response in data set [6] (EC50) required 0.207 µM. Further, the concentration for half-maximal inhibition (IC50) in [1], in [3] and in data set [4] was more than 100 µM in each case. In addition, the outcome in data set [2] was inactive.

Turning to `CCc1c(-c2ccc(O)cc2F)c(=O)oc2cc(O)ccc12`, the Drug uptake entry in [9], in data set [11] and in data set [12] was “Not Active” throughout. Also, the outcome in data set [10], in data set [13], in [14], in data set [16], in data set [18] and in [20] was Active. Further, in [21], the outcome was Active. The Efficacy was -6.9% in data set [5] and 26.4% in [7]. The IC50 is 0.012 µM in data set [8], 16.1 µM in [1], more than 100 µM in data set [3] and 8.03 µM in [4]. In addition, the result in [15], in data set [17], in data set [19] and in [2] was inactive.

Regarding `CCc1c(-c2ccc(O)cc2Cl)c(=O)oc2cc(O)ccc12`, the result in data set [10], in [14], in [18] and in data set [21] was Active. Besides, the Efficacy in data set [5] came to 68.2%; in data set [7], 120%. The molecule further had an EC50 in data set [6] of 0.343 µM. The Drug uptake entry in [12] is listed as “Not Active”. The IC50 in [1] was 49.3 µM; in data set [3] it was more than 100 µM; in [4], 37.2 µM. The result in [15], in [17], in data set [19] and in data set [2] was inactive.

As for `Cc1c(-c2ccc(O)cc2Cl)c(=O)oc2cc(O)ccc12`, the Efficacy in data set [5] was 12.9%; in data set [7], 84.6%. Besides, the IC50 in data set [8] turned out to be 1.24 µM; in data set [1] it was 21.6 µM; in data set [3] it was 46.1 µM; in data set [4] it was 26.7 µM. In [6], this molecule showed an EC50 of 0.894 µM. Moreover, in [2], the result was inactive.

Consider `O=c1oc2cc(O)ccc2c(-c2ccc(O)c(F)c2)c1-c1ccc(O)c(F)c1`, for which the Efficacy in [5] was -11.2%; in data set [7], 57.8%. Moreover, the IC50 is 0.219 µM in data set [8], 40.1 µM in [1], more than 100 µM in [3] and 31.7 µM in data set [4]. Further, the result in data set [2] was inactive.

With `C[C@]12CC[C@@H]3c4ccc(O)cc4CC[C@H]3[C@@H]1CC[C@@]2(O)C#Cc1ccc(CNC(=O)c2ccc(-c3c4ccc(=O)cc-4oc4cc(O)ccc34)c(C(=O)O)c2)cc1`, the Drug uptake entry in data set [12] is listed as “Active”. The outcome in data set [20] was inactive.
